Entries after “also recorded” stand apart in the source; their conditions may differ.
Test system: FEMX human melanoma cells
Experiment: Growth and TUNEL apoptosis of FEMX human melanoma tumors expressing ATF2 peptide in nude mice
Type: in vivo
Text: LU1205 or FEMX human melanoma tumor-derived cell lines that constitutively express ATF2^51-100 peptide or that contain control vector were each injected subcutaneously into a group of 6 nude mice (10^6 cells per injection) per cell line per experiment. […] The data shown represent three experiments. Bars represent standard deviation, P<0.0015. […] The data shown represent three experiments. Bars represent standard deviation, P<0.0021.
The ability of expressed ATF2^51-100 peptide to affect the tumorigenicity of human melanoma cells in vivo was examined. To this end, growth of LU1205 and FEMX human melanoma cells were monitored in nude mice in the presence or absence of treatment that induced apoptosis in vitro. LU1205, FEMX and SW-1 cells that express control or ATF2^51-100 peptide were trypsinized, resuspended in PBS and injected SC (1×10^6) into 6-7 week old mice in the lower flank. When the tumor reached the size of about 50 mm^3, 10 μM of SB203580 was injected into 4 areas of the LU1205 tumors every 4 days during a 2 week period. For FEMX tumors, UCN-01 (5 mg/Kg) was fed by gavage, three times per week for a total of 2 weeks. Tumor growth was monitored every two days. Tissue samples were fixed in formalin and embedded in paraffin. Hematoxylin and eosin (H&E), TUNEL staining was performed as previously described (Bhoumik et al., Clin. Cancer Res., 2001; 2:331-342).

ATF2^51-100: amino-terminal peptide of ATF2, amino acid residue 51 to 100 (about a 50 amino acid peptide), expressed in tumor cells (MTLKFGPARNDSVIVADQTPTPTRFLKNCEEVGLFNELASPFENEFKKAS; UniProt P15336 51-100, looked up, fragment)
tumor growth rate (FEMX cells constitutively expressing peptide, SC in nude mice): reduced the growth rates; also recorded: inhibits growth | tumor growth with additional treatment (peptide-expressing FEMX tumors plus UCN-01 5 mg/Kg by gavage): additional decrease in growth | degree of apoptosis in tumors (TUNEL) (peptide-expressing tumors upon exposure to additional treatment): marked increase in the degree of apoptosis

Reference: patent US20090281025A1, “INHIBITION OF TUMOR GROWTH AND METASTASIS BY ATF2-DERIVED PEPTIDES” (Mount Sinai School Of Medicine of New York University, priority 2004, published 2009)
